≈ marks a conversion by molar mass, not a printed value.
Tested on: not listed separately
Test: Metabolic stability in human liver microsomes assessed as intrinsic clearance measured per mg of protein at 0.5 uM measured upto 45 mins in presence of NADPH regenerating system by HPLC-MS/MS analysis
Type: ADME, Microsome
Conditions: read-out: CLH

SMILES | microsomal CLint at 0.5 µM [µL/min/mg]
CCC[C@@H](C)OC(=O)Nc1c(C)noc1-c1ccc(NC(=O)[C@H]2CCCC[C@@H]2C(=O)O)c(C)n1 | 3.1
Cc1nc(-c2onc(C)c2NC(=O)O[C@H](C)c2ccccn2)ccc1NC(=O)[C@H]1CCCC[C@@H]1C(=O)O | 0.3

Second part, the compound after the results:

microsomal CLint at 0.5 µM [µL/min/mg] | SMILES
7 | Cc1nc(-c2onc(C)c2CNC(=O)O[C@H](C)c2ccccc2Cl)ccc1NC(=O)[C@H]1CCCC[C@@H]1C(=O)O
< 2 | Cc1cc(NC(=O)[C@H]2CCCC[C@@H]2C(=O)O)c(C)nc1-c1onc(C)c1NC(=O)O[C@H](C)c1ccccc1Cl
1 | Cc1noc(-c2ccc(NC(=O)[C@H]3CCCC[C@@H]3C(=O)O)c(F)n2)c1NC(=O)O[C@H](C)c1ccccc1Cl

Tested on: not listed separately
Test: Aqueous solubility of the compound at pH 7.4
Type: physicochemical
Conditions: buffer

solubility [µM] | SMILES
525 (≈ 292 µg/mL) | Cc1nc(-c2onc(C)c2CNC(=O)O[C@H](C)c2ccccc2Cl)ccc1NC(=O)[C@H]1CCCC[C@@H]1C(=O)O
519 (≈ 245 µg/mL) | CCC[C@@H](C)OC(=O)Nc1c(C)noc1-c1ccc(NC(=O)[C@H]2CCCC[C@@H]2C(=O)O)c(C)n1
509 (≈ 282 µg/mL) | Cc1cc(NC(=O)[C@H]2CCCC[C@@H]2C(=O)O)c(C)nc1-c1onc(C)c1NC(=O)O[C@H](C)c1ccccc1Cl
555 (≈ 302 µg/mL) | Cc1noc(-c2ccc(NC(=O)[C@H]3CCCC[C@@H]3C(=O)O)c(F)n2)c1NC(=O)O[C@H](C)c1ccccc1Cl

Biological target: BSEP (Homo sapiens, UniProt O95342)
Sequence (O95342 whole entry): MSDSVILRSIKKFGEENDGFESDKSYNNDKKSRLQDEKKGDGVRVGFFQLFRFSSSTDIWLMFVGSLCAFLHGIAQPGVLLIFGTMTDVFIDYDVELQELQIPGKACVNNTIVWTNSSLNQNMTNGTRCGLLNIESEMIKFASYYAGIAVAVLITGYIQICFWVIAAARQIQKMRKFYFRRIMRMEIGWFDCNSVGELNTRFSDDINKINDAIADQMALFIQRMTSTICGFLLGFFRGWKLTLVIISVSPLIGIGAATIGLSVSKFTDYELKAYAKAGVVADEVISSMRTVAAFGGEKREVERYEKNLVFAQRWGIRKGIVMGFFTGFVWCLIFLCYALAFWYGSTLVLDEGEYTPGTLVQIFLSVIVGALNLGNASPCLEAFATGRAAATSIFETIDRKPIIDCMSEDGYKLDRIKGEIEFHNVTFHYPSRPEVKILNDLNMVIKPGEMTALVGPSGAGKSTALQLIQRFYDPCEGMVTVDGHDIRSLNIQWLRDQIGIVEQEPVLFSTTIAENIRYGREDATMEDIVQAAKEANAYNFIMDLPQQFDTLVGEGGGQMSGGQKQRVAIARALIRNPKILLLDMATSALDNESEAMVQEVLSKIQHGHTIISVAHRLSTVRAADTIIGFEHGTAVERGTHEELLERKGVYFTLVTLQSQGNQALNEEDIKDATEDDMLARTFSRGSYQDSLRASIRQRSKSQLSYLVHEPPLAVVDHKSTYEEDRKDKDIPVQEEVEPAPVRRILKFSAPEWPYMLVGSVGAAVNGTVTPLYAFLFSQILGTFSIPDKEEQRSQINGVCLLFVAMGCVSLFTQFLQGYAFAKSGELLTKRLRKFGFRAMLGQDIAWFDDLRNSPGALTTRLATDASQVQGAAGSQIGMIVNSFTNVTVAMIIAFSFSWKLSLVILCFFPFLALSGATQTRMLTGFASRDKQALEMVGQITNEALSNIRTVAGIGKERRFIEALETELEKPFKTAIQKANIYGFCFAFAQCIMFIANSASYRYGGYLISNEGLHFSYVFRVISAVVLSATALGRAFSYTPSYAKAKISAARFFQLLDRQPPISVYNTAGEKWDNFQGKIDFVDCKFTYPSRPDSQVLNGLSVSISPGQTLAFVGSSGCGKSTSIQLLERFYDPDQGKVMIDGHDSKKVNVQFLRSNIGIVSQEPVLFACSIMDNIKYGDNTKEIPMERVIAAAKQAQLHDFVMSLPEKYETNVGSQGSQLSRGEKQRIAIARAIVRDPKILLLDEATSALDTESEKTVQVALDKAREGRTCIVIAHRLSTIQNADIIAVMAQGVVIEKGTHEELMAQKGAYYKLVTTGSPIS
Test: Inhibition of BSEP in cryopreserved sandwich-cultured human hepatocytes by measuring reduction in TCA biliary clearance using taurocholic acid as substrate at 50 uM relative to control
Type: cell-based, Hepatocyte
Conditions: cryopreserved sandwich-cultured hepatocytes, probe taurocholic acid

SMILES | inhibition at 50 µM [%]
Cc1nc(-c2onc(C)c2CNC(=O)O[C@H](C)c2ccccc2Cl)ccc1NC(=O)[C@H]1CCCC[C@@H]1C(=O)O | 82
CCC[C@@H](C)OC(=O)Nc1c(C)noc1-c1ccc(NC(=O)[C@H]2CCCC[C@@H]2C(=O)O)c(C)n1 | 48
Cc1cc(NC(=O)[C@H]2CCCC[C@@H]2C(=O)O)c(C)nc1-c1onc(C)c1NC(=O)O[C@H](C)c1ccccc1Cl | 73
Cc1nc(-c2onc(C)c2NC(=O)O[C@H](C)c2ccccn2)ccc1NC(=O)[C@H]1CCCC[C@@H]1C(=O)O | 0
Cc1noc(-c2ccc(NC(=O)[C@H]3CCCC[C@@H]3C(=O)O)c(F)n2)c1NC(=O)O[C@H](C)c1ccccc1Cl | 50

Tested on: not listed separately
Test: Lipophilicity, logD of compound at pH 7.4 by chromatographic hydrophobicity index method
Type: physicochemical
Conditions: buffer

chromatographic logD | SMILES
1.69 | Cc1nc(-c2onc(C)c2CNC(=O)O[C@H](C)c2ccccc2Cl)ccc1NC(=O)[C@H]1CCCC[C@@H]1C(=O)O
1.36 | CCC[C@@H](C)OC(=O)Nc1c(C)noc1-c1ccc(NC(=O)[C@H]2CCCC[C@@H]2C(=O)O)c(C)n1
1.69 | Cc1cc(NC(=O)[C@H]2CCCC[C@@H]2C(=O)O)c(C)nc1-c1onc(C)c1NC(=O)O[C@H](C)c1ccccc1Cl
1.5 | Cc1noc(-c2ccc(NC(=O)[C@H]3CCCC[C@@H]3C(=O)O)c(F)n2)c1NC(=O)O[C@H](C)c1ccccc1Cl

Tested on: not listed separately
Test: Metabolic stability in female C57BL/6J mouse liver microsomes assessed as intrinsic clearance measured per mg of protein at 0.5 uM measured upto 45 mins in presence of NADPH regenerating system by HPLC-MS/MS analysis
Type: ADME, Microsome
Conditions: read-out: CLH

SMILES | microsomal CLint at 0.5 µM [µL/min/mg]
CCC[C@@H](C)OC(=O)Nc1c(C)noc1-c1ccc(NC(=O)[C@H]2CCCC[C@@H]2C(=O)O)c(C)n1 | 3.7
Cc1nc(-c2onc(C)c2NC(=O)O[C@H](C)c2ccccn2)ccc1NC(=O)[C@H]1CCCC[C@@H]1C(=O)O | 6

Second part, the compound after the results:

microsomal CLint at 0.5 µM [µL/min/mg] | SMILES
11.8 | Cc1nc(-c2onc(C)c2CNC(=O)O[C@H](C)c2ccccc2Cl)ccc1NC(=O)[C@H]1CCCC[C@@H]1C(=O)O
4 | Cc1cc(NC(=O)[C@H]2CCCC[C@@H]2C(=O)O)c(C)nc1-c1onc(C)c1NC(=O)O[C@H](C)c1ccccc1Cl
5.4 | Cc1noc(-c2ccc(NC(=O)[C@H]3CCCC[C@@H]3C(=O)O)c(F)n2)c1NC(=O)O[C@H](C)c1ccccc1Cl
